Data set [1] deals with serum cholesterol. To be noted: baboons, 1.5 mg/kg for 12 days.
The test system of data set [2] is total serum testosterone. To be noted: for effect on total serum testosterone (in words): baboons; for effect on total serum testosterone (in words) / Serum Testosterone Levels, 12 days, group mean: 1.5 mg/kg for 12 days; for Serum Testosterone Levels, 6 days / Serum Testosterone Levels, 12 days / Serum Testosterone Levels, wash-out / Serum Testosterone Levels, baseline / Serum Testosterone Levels, 0 day: individual baboon; for Serum Testosterone Levels, 6 days / Serum Testosterone Levels, 6 days, group mean: 1.5 mg/kg daily, day 6; for Serum Testosterone Levels, 6 days / Serum Testosterone Levels, 12 days: 1.5 mg/kg; for Serum Testosterone Levels, 12 days: 1.5 mg/kg for 12 consecutive days; for Serum Testosterone Levels, 12 days / Serum Testosterone Levels, 12 days, group mean: day 12; for Serum Testosterone Levels, wash-out / Serum Testosterone Levels, wash-out, group mean: 7 days after the last treatment; for Serum Testosterone Levels, baseline: baseline Dec. 3, 2001, before treatment; for Serum Testosterone Levels, 0 day / Serum Testosterone Levels, 0 day, group mean: day 0, before first dose; for Serum Testosterone Levels, 6 days, group mean / Serum Testosterone Levels, 12 days, group mean / Serum Testosterone Levels, wash-out, group mean / Serum Testosterone Levels, baseline, group mean / Serum Testosterone Levels, 0 day, group mean: mean of 3 baboons; for Serum Testosterone Levels, baseline, group mean: before treatment.
Text: (§1) The samples analyzed were sera taken on the day of first treatment before being given test article (day 0), after 12 days of treatment (day 12) and 7 days after the last treatment (end or wash-out).

For data set [3], the system named is serum prolactin (PRL). As to the kind of experiment: Serum prolactin in male baboons. The following applies: 1.5 mg/kg for 12 days.
Text: as §1

The values below come from patent US20150031656A1, “COMBINATION THERAPY FOR TREATING ANDROGEN DEFICIENCY” (REPROS THERAPEUTICS INC., priority 2012, published 2015).

Values joined by “and” are separate entries in the source; they are usually repeats but may differ in a detail not shown here. Equal entries are not always repeated. Structures can show the parent of a compound that is named as a salt. Where two headings read alike, the source gives them in different places.

With `CCN(CC)CCOc1ccc(C(=C(Cl)c2ccccc2)c2ccccc2)cc1` [Clomid, clomiphene citrate], where the note is “in vivo”, the ALT/SGPT result is reported as “out of range low at the end of the study”; the “BUN and BUN/creatinine” value is reported as “altered during the study”; the serum carbon dioxide entry is “higher than reference values”. The serum glucose entry (in vivo, 1.5 mg/kg) is “within the normal range”. In addition, the “effect on serum cholesterol levels (in words)” value in data set [1] is “slight increase”. Also, in data set [2], the “effect on total serum testosterone (in words)” value is “more variable total testosterone levels on day 6 and later”; the “Serum Testosterone Levels, 6 days, group mean” value turned out to be 559.3 ng/dL; the “Serum Testosterone Levels, 12 days, group mean” value was found to be 588.7 ng/dL; the “Serum Testosterone Levels, wash-out, group mean” value worked out at 203.6 ng/dL. For the same compound, in data set [2], the “Serum Testosterone Levels, baseline, group mean” value came to 111.5 ng/dL and the “Serum Testosterone Levels, 0 day, group mean” value stood at 161.4 ng/dL. In data set [2] (listed as CLO), the “Serum Testosterone Levels, 6 days” value was 940.97 ng/dL and 585.92 ng/dL and 151.12 ng/dL; the “Serum Testosterone Levels, 12 days” value is 891.5 ng/dL and 555.6 ng/dL and 318.9 ng/dL; the “Serum Testosterone Levels, wash-out” value was 150.9 ng/dL and 316.3 ng/dL and 143.6 ng/dL; the “Serum Testosterone Levels, baseline” value was 79.01 ng/dL and 97.55 ng/dL and 158.06 ng/dL. The “Serum Testosterone Levels, 0 day” value in data set [2] (listed as CLO) is 76.15 ng/dL and 305.24 ng/dL and 102.94 ng/dL.

On to `CCN(CC)CCOc1ccc(/C(=C(/Cl)c2ccccc2)c2ccccc2)cc1` [Enclomid, trans-Clomid], for which, where the note is “in vivo”, the ALT/SGPT entry is reported as “within the normal range”; the “BUN and BUN/creatinine” value is “altered during the study”; the “per cent of granulocytes in the blood” value was “lowering the per cent of granulocytes in the blood”; the platelet count entry was “pushed the platelet count to its normal male level”. For the same compound, under “in vivo”, the “serum alkaline phosphatase (ALP)” value is “decreased in value” and the serum anion gap result is “raised this parameter towards normal values”. Besides, where the note is “in vivo, 1.5 mg/kg”, the “lymphocyte count and per cent lymphocytes” value was “Both the count and per cent lymphocytes in the population increase”; the “red blood cell population” value is given as “substantive effects on the red blood cell population”; the serum glucose result is “no increases with treatment”. Moreover, the “decrease in serum cholesterol levels” value in data set [1] came to 8%. Moreover, in data set [2], the “effect on total serum testosterone (in words)” value is “significantly and statistically raised total serum testosterone on days 6 and 12”; the “Serum Testosterone Levels, 6 days” value was 1223.8 ng/dL and 1128.2 ng/dL and 1081.1 ng/dL; the “Serum Testosterone Levels, 12 days” value is 633.6 ng/dL and 1466 ng/dL and 1166 ng/dL; the “Serum Testosterone Levels, wash-out” value was 307.2 ng/dL and 399.2 ng/dL and 271 ng/dL. Besides, in data set [2], the “Serum Testosterone Levels, baseline” value is 64.57 ng/dL and 166.86 ng/dL and 170.45 ng/dL; the “Serum Testosterone Levels, 0 day” value is 74.96 ng/dL and 133.59 ng/dL and 106.47 ng/dL; the “Serum Testosterone Levels, 6 days, group mean” value worked out at 1144.4 ng/dL; the “Serum Testosterone Levels, 12 days, group mean” value came to 1088.5 ng/dL. Further, in data set [2], the “Serum Testosterone Levels, wash-out, group mean” value turned out to be 325.8 ng/dL; the “Serum Testosterone Levels, baseline, group mean” value was found to be 134.0 ng/dL; the “Serum Testosterone Levels, 0 day, group mean” value came out at 105.0 ng/dL. Further, the “serum prolactin (PRL) during the study” value in data set [3] is given as “decrease in serum prolactin (PRL)”.

Regarding `CCN(CC)CCOc1ccc(/C(=C(\Cl)c2ccccc2)c2ccccc2)cc1` [Zuclomid, cis-Clomid], for the setting “baboons, 1.5 mg/kg for 12 days”, the hematocrit entry is reported as “demonstrated a statistical difference”, the “red blood cell population” value is on record as “substantive effects on the red blood cell population” and the serum glucose entry is “within the normal range”. Further, the serum carbon dioxide entry (baboons, day 12) was “higher than reference values”. Moreover, where the note is “baboons, following treatment”, the “serum alkaline phosphatase (ALP)” value is “not elevated”. Also, the ALT/SGPT result (baboons, over the treatment period / end of the study) is “within the normal range”. In data set [1], the “increase in serum cholesterol levels” value is recorded as 22%. In data set [2], the “effect on total serum testosterone (in words)” value is recorded as “did not raise total serum testosterone to any extent”; the “Serum Testosterone Levels, 6 days” value was 137.51 ng/dL and 169.98 ng/dL and 227.95 ng/dL; the “Serum Testosterone Levels, 12 days” value is 314.5 ng/dL and 406.1 ng/dL and 353.0 ng/dL; the “Serum Testosterone Levels, wash-out” value is 359.7 ng/dL and 860.5 ng/dL and 274.1 ng/dL. Besides, in data set [2], the “Serum Testosterone Levels, baseline” value is 124.84 ng/dL and 104.66 ng/dL and 282.29 ng/dL; the “Serum Testosterone Levels, 0 day” value is 210.4 ng/dL and 67.37 ng/dL and 904.82 ng/dL; the “Serum Testosterone Levels, 6 days, group mean” value turned out to be 178.5 ng/dL; the “Serum Testosterone Levels, 12 days, group mean” value came to 357.9 ng/dL. In data set [2], the “Serum Testosterone Levels, wash-out, group mean” value came to 498.1 ng/dL; the “Serum Testosterone Levels, baseline, group mean” value worked out at 170.6 ng/dL; the “Serum Testosterone Levels, 0 day, group mean” value amounted to 394.2 ng/dL.
